# According to US10613104B2, “Assay to determine anticoagulants in blood or blood plasma” (ZAFENA AB, priority 2014, dated 2020):
# Assays:
# [1] = tested on: prothrombin time (PT) of normal citrated blood; assay: Three wet-chemistry Owren PT methods (Simple Simon PT) on normal citrated blood with added apixaban; type: biochemical
# Method: Experimental work was performed with the commercially available ambient room temperature coagulation instrument, Simple Simon P T Zafena A B, Linköping, Sweden, with functions described in EP 1 636 595 B2. One instrument or reader was used for each PT-method. Alternatively, the same instrument could be used for all PT-methods.
# The three instruments were used together standing next to one another on a laboratory bench in thermal equilibrium with the ambient room temperature of the laboratory.
# The PT-reagent was the one delivered together with lot N223M of the Simple Simon PT product, a reagent of Owren-type that thus contains effective amounts of thromboplastin, fibrinogen and FV (the thromboplastin of rabbit brain origin and the fibrinogen and the FV of bovine blood plasma origin). Other Owren type reagents could also be used.
# The reagent was in portions of 200 μL to which sample, citrated blood or citrated blood plasma, was added and mixed. The addition was by an end-to-end plastic capillary mounted at one end of a tubular body with a displacement mechanism in the other end, this to allow convenient mixing of sample and reagent. Such Mixxocaps with 10 μL capillaries are supplied with the Simple Simon PT product. To perform the experiments described, some Mixxocaps were fitted with 20 μL capillaries, or 5 μL capillaries instead of the 10 μL capillaries with which they were supplied by the manufacturer.
# These blood samples and a blood sample with an INR 2.3 were analyzed by Simple Simon PT using sample volumes of 20 μL, 10 μL and 5 μL in 200 μL reagents. […]
# [2] = tested on: prothrombin time (PT) of control plasma NKP; assay: 20 μL and 5 μL PT methods with reagent P161 at various added CaCl2, NKP + 500 μg/L apixaban; type: biochemical
# Method: With each reagent three samples were analyzed by the two PT methods of the anticoagulant assay, the 20 μL-method and the 5 μL-method. Two of the samples were reference samples, the control plasmas NKP and ZAP, with established INR values of 1.00 and 2.50, respectively.
# [3] = apixaban 63 μg/L in normal citrated blood
# [4] = apixaban 125 μg/L in normal citrated blood
# [5] = apixaban 250 μg/L in normal citrated blood
# [6] = apixaban 500 μg/L in normal citrated blood
# [7] = apixaban 714 μg/L in normal citrated blood
# [8] = apixaban 1000 μg/L in normal citrated blood
smiles,measurement,setting,value
COc1ccc(-n2nc(C(N)=O)c3c2C(=O)N(c2ccc(N4CCCCC4=O)cc2)CC3)cc1 [apixaban],INR 10 μL sample,[1]; [3],1.19
same,INR 20 μL sample,[1]; [3],1.41
same,INRc 5 μL sample,[1]; [3],1.06
same,INRc 10 μL sample,[1]; [3],1.12
same,INRc 20 μL sample,[1]; [3],1.21
same,INRo,[1]; [3],0.96
same,ΔINRc 10 μL − 5 μL,[1]; [3],0.06
same,ΔINRc 20 μL − 5 μL,[1]; [3],0.15
same,INR 10 μL sample,[1]; [4],1.32
same,INR 20 μL sample,[1]; [4],1.75
same,INRc 5 μL sample,[1]; [4],1.16
same,INRc 10 μL sample,[1]; [4],1.26
same,INRc 20 μL sample,[1]; [4],1.49
same,INRo,[1]; [4],1.02
same,ΔINRc 10 μL − 5 μL,[1]; [4],0.10
same,ΔINRc 20 μL − 5 μL,[1]; [4],0.32
same,INR 5 μL sample,[1]; [5],1.32
same,INR 10 μL sample,[1]; [5],1.64
same,INR 20 μL sample,[1]; [5],2.61
same,INRc 5 μL sample,[1]; [5],1.39
same,INRc 10 μL sample,[1]; [5],1.60
same,INRc 20 μL sample,[1]; [5],2.18
same,INRo,[1]; [5],1.07
same,ΔINRc 10 μL − 5 μL,[1]; [5],0.21
same,ΔINRc 20 μL − 5 μL,[1]; [5],0.79
same,INR 5 μL sample,[1]; [6],1.66
same,INR 10 μL sample,[1]; [6],2.27
same,INR 20 μL sample,[1]; [6],4.58
same,INRc 5 μL sample,[1]; [6],1.81
same,INRc 10 μL sample,[1]; [6],2.29
same,INRc 20 μL sample,[1]; [6],3.73
same,INRo,[1]; [6],1.09
same,ΔINRc 10 μL − 5 μL,[1]; [6],0.48
same,ΔINRc 20 μL − 5 μL,[1]; [6],1.92
same,INR 5 μL sample,[1]; [7],1.87
same,INR 10 μL sample,[1]; [7],2.78
same,INR 20 μL sample,[1]; [7],6.06
same,INRc 5 μL sample,[1]; [7],2.08
same,INRc 10 μL sample,[1]; [7],2.86
same,INRc 20 μL sample,[1]; [7],4.88
same,INRo,[1]; [7],0.91
same,ΔINRc 10 μL − 5 μL,[1]; [7],0.78
same,ΔINRc 20 μL − 5 μL,[1]; [7],2.80
same,INR 10 μL sample,[1]; [8],3.50
same,INR 20 μL sample,[1]; [8],8.76
same,INRc 5 μL sample,[1]; [8],2.51
same,INRc 10 μL sample,[1]; [8],3.69
same,INRc 20 μL sample,[1]; [8],6.94
same,INRo,[1]; [8],0.74
same,ΔINRc 10 μL − 5 μL,[1]; [8],1.16
same,ΔINRc 20 μL − 5 μL,[1]; [8],4.43
same,5 uL-method NKP + 500 INR5c,"[2]; reagent P161, added Ca2+ 4 mM",1.18
same,20 uL-method NKP + 500 INR20c,"[2]; reagent P161, added Ca2+ 4 mM",1.83
same,20 uL-method NKP + 500 INR20c,"[2]; reagent P161, added Ca2+ 8 mM",2.15
same,20 uL-method NKP + 500 INR20c,"[2]; reagent P161, added Ca2+ 16 mM",3.15
same,20 uL-method NKP + 500 INR20c,"[2]; reagent P161, added Ca2+ 24 mM",3.30
same,5 uL-method NKP + 500 INR5c,"[2]; reagent P161, added Ca2+ 32 mM",1.49
same,20 uL-method NKP + 500 INR20c,"[2]; reagent P161, added Ca2+ 32 mM",3.38
